Results on two molecules are retold here after publication PMC9662648 (Journal of the American Chemical Society, 2022).

For this test, the system named is SARS-CoV-2 (USA-WA1/2020/NR-52281). Put plainly: Live native virus infection of A549-hACE2 versus A549-hACE2/TMPRSS2 cells. The format is cell-based. To be noted: virus 1 h, then compound.

In the case of `CCOC(=O)C=CC(CC1CCNC1=O)NC(=O)C(Cc1ccccc1)NC(=O)C(N)Cc1ccccc1` (centres unmarked) [SM141], the “efficacy against live virus upon overexpression of TMPRSS2” value is recorded as “only a partial loss in efficacy”.
As for `CCOC(=O)C=CC(CC1CCNC1=O)NC(=O)C(Cc1ccccc1)NC(=O)C(Cc1ccc(F)cc1)NC(=O)OC(C)(C)C` (centres unmarked) [SM142], the entry is “only a partial loss in efficacy”.
